Laboratory results: ChEMBL document CHEMBL5584341, “Discovery of Potent, Specific, and Orally Available NLRP3 Inflammasome Inhibitors Based on Pyridazine Scaffolds for the Treatment of Septic Shock and Peritonitis” (J Med Chem, 2024)

What was measured:
[1] = Inhibition of IL-1beta release in PMA-differentiated/ LPS and nigericin stimulated human THP-1 cells at 0.5 uM pretreated with LPS for 3 hrs followed by incubation with compound for 40 mins and later stimulated with nigericin for 40 mins by ELISA; format: functional; conditions: THP-1, 1.333 h, time 80 min
[2] = Inhibition of IL-1beta release in PMA-differentiated/ LPS and nigericin stimulated human THP-1 cells at 0.1 uM pretreated with LPS for 3 hrs followed by incubation with compound for 40 mins and later stimulated with nigericin for 40 mins by ELISA; format: functional; conditions: THP-1, 1.333 h, time 80 min
[3] = Inhibition of IL-1beta release in PMA-differentiated/ LPS and nigericin stimulated human THP-1 cells pretreated with LPS for 3 hrs followed by incubation with compound for 40 mins and later stimulated with nigericin for 40 mins by ELISA; format: functional, cell-based
[4] = target: hERG (KCNH2) (Homo sapiens, UniProt Q12809); assay: Inhibition of human ERG at 20 uM relative to control
Chain of hERG (KCNH2) (Q12809 whole entry): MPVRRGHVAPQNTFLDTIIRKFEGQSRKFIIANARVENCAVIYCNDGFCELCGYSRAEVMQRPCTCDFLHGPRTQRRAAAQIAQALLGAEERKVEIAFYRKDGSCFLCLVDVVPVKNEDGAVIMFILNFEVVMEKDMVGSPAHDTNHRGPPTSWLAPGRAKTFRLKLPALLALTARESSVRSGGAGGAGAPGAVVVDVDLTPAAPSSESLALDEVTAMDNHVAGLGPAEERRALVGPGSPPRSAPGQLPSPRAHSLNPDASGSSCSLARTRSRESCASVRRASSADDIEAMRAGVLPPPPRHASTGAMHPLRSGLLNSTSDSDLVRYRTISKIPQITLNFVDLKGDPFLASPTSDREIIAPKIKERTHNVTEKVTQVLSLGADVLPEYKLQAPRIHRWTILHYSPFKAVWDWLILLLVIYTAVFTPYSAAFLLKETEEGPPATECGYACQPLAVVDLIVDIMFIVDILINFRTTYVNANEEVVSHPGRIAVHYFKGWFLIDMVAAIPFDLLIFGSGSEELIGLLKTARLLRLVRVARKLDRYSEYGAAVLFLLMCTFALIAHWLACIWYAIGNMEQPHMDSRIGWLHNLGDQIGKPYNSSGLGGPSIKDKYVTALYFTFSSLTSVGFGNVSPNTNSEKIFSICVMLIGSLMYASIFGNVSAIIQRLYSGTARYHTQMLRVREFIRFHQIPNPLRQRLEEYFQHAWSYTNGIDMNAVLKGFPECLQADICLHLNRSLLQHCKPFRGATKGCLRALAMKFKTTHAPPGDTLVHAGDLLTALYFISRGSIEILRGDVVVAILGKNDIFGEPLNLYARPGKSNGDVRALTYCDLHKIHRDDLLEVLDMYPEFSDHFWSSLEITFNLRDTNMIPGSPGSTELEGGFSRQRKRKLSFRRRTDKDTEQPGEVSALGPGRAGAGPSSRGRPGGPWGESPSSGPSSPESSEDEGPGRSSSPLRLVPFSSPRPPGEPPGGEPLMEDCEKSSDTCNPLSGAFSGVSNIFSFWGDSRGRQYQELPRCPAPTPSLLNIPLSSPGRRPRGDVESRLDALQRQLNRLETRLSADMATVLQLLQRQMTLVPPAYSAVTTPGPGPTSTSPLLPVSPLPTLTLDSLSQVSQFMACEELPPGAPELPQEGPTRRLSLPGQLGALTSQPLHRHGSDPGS

[5] = Metabolic stability in human liver microsomes assessed as half life at 10 uM […] in presence of NADPH by LC-MS/MS analysis; format: ADME, Microsome
[6] = Metabolic stability in human liver microsomes assessed as intrinsic clearance per g protein at 10 uM […] in presence of NADPH by LC-MS/MS analysis; format: ADME, Microsome
[7] = tested on: Mus musculus; assay: Antiinflammatory activity against LPS induced septic shock in BALB/c mouse assessed as increase in survival rate at 25 mg/kg, ip pretreated for 1 hr followed by LPS stimulation and measured after 72 hrs; format: functional; conditions: time 73 hrs

| IC50 [3] [nM] | half-life at 10 µM [5] [h] | intrinsic clearance [6] [mL/min] | Structure (SMILES) | inhibition at 0.5 µM [1] [%] | inhibition at 0.1 µM [2] [%] | inhibition at 20 µM [4] [%] | Activity [7] [%] |
| --- | --- | --- | --- | --- | --- | --- | --- |
| 27 | – | – | CCN1CCC[C@@H](Nc2nnc(-c3ccc(C(F)(F)F)cc3O)c3c2C2CCC3C2)C1 (some centres undefined) | 96.3 | 92.5 | – | – |
| – | – | – | Oc1cc(C(F)(F)F)ccc1-c1nnc(N[C@@H]2CCCN(CC(F)F)C2)c2c1C1CCC2CC1 | 73.8 | 19.7 | – | – |
| – | – | – | CC(C)(F)CN1CCC[C@@H](Nc2nnc(-c3ccc(C(F)(F)F)cc3O)c3c2C2CCC3CC2)C1 | 95.8 | 55.4 | – | – |
| 1 | > 2 | < 12 | CCN1CCC[C@@H](Nc2nnc(-c3ccc4occc4c3O)c3c2C2CCC3CC2)C1 | 98.3 | 98.6 | 85.3 | – |
| 6 | – | – | Oc1cc(C(F)(F)F)ccc1-c1nnc(N[C@@H]2CCCC[C@H]2O)c2c1CCCC2 | 98.3 | 92.4 | 84.1 | – |
| 12 | – | – | Cc1c(N[C@@H]2CCCC[C@H]2O)nnc(-c2ccc(C(F)(F)F)cc2O)c1C | 98.3 | 97.8 | – | – |
| – | – | – | Oc1c(-c2nnc(N[C@@H]3CCOC3)c3c2C2CCC3CC2)ccc2occc12 | 30 | 25 | – | – |
| 49 | – | – | Oc1cc(C(F)(F)F)ccc1-c1nnc(N[C@@H]2CCCN(C3CCC3)C2)c2c1C1CCC2C1 (some centres undefined) | 97.2 | 94.6 | – | – |
| 5 | > 2 | < 12 | CN1C[C@H](F)C[C@@H](Nc2nnc(-c3ccc4occc4c3O)c3c2C2CCC3CC2)C1 | 98.6 | 98.6 | 78.5 | – |
| – | – | – | CN1CCC[C@H](Nc2nnc(-c3ccc(C(F)(F)F)cc3O)c3c2C2CCC3C2)C1 (some centres undefined) | 3.09 | 5.31 | – | – |
| – | – | – | CC(F)(F)CN1CCC[C@@H](Nc2nnc(-c3ccc(C(F)(F)F)cc3O)c3c2C2CCC3CC2)C1 | 49.9 | 29 | – | – |
| 25 | – | – | Oc1cc(C(F)(F)F)ccc1-c1nnc(N[C@@H]2CCCN(C3CC(F)(F)C3)C2)c2c1C1CCC2CC1 | 97.4 | 96.3 | 15.5 | – |
| – | – | – | N#Cc1ccc(-c2nnc(N[C@@H]3CCCN(C4CC(F)(F)C4)C3)c3c2C2CCC3CC2)c(O)c1 | 91.5 | 51.7 | – | – |
| 57 | – | – | Oc1c(-c2nnc(N[C@@H]3CCCN(C4CC(F)(F)C4)C3)c3c2C2CCC3CC2)ccc2sccc12 | 96.9 | 61.9 | 69.4 | – |
| 76 | – | – | Oc1cc(C(F)(F)F)ccc1-c1nnc(N[C@@H]2CCCN(C3CC(F)(F)C3)C2)c2c1C1CCC2C1 (some centres undefined) | 96.3 | 72.8 | – | – |
| 87 | – | – | Oc1cc(C(F)(F)F)ccc1-c1nnc(N[C@@H]2CCCN(CC3CC3)C2)c2c1C1CCC2C1 (some centres undefined) | 97.2 | 83.9 | – | – |
| – | – | – | CN1C[C@H](Nc2nnc(-c3ccc4occc4c3O)c3c2C2CCC3CC2)CC(F)(F)C1 | 97.7 | 55.5 | – | – |
| 38 | – | – | CN1CCC[C@@H](Nc2nnc(-c3ccc(C(F)(F)F)cc3O)c3c2C2CCC3CC2)C1 | 97.4 | 97 | – | – |
| – | – | – | Oc1cc(C(F)(F)F)ccc1-c1nnc(N[C@@H]2CCC[C@H](O)C2)c2c1C1CCC2CC1 | 90.8 | 45 | – | – |
| – | – | – | Oc1cc(OC(F)(F)F)ccc1-c1nnc(N[C@@H]2CCCN(C3CC(F)(F)C3)C2)c2c1C1CCC2CC1 | 93.2 | 46.5 | – | – |

| IC50 [3] [nM] | half-life at 10 µM [5] [h] | intrinsic clearance [6] [mL/min] | Structure (SMILES) | inhibition at 0.5 µM [1] [%] | inhibition at 0.1 µM [2] [%] | inhibition at 20 µM [4] [%] | Activity [7] [%] |
| --- | --- | --- | --- | --- | --- | --- | --- |
| 4 | > 2 | < 12 | CC(CO)N1CCC[C@@H](Nc2nnc(-c3ccc4occc4c3O)c3c2C2CCC3CC2)C1 (some centres undefined) | 99 | 98.8 | 71 | – |
| – | – | – | Oc1cc(C(F)(F)F)ccc1-c1nnc(N[C@@H]2CCCN(C3COC3)C2)c2c1C1CCC2CC1 | 96.5 | 52.9 | – | – |
| 49 | – | – | Oc1cc(C(F)(F)F)ccc1-c1nnc(N[C@@H]2CCCN(C3CCOC3)C2)c2c1C1CCC2CC1 (some centres undefined) | 96.8 | 95.2 | – | – |
| – | – | – | OC[C@@H](O)CNc1nnc(-c2ccc(C(F)(F)F)cc2O)c2c1C1CCC2CC1 | 74.5 | 20.3 | – | – |
| 2 | 0.745 | 31 | Oc1c(-c2nnc(N[C@@H]3CCCN(C4CC(F)(F)C4)C3)c3c2C2CCC3CC2)ccc2occc12 | 98.6 | 98.5 | -1.03 | – |
| – | – | – | CN1CC[C@@H](Nc2nnc(-c3ccc(C(F)(F)F)cc3O)c3c2C2CCC3C2)C1 (some centres undefined) | 32.7 | 12.1 | – | – |
| 1 | > 2 | < 12 | [2H]C([2H])([2H])C([2H])([2H])N1CCC[C@@H](Nc2nnc(-c3ccc4occc4c3O)c3c2C2CCC3CC2)C1 | 98.5 | 98.6 | 85.8 | – |
| – | – | – | CN1CCO[C@H](CNc2nnc(-c3ccc4occc4c3O)c3c2C2CCC3CC2)C1 | 36.5 | 9.42 | – | – |
| 79 | – | – | Oc1cc(C(F)(F)F)ccc1-c1nnc(N[C@@H]2CCCC[C@H]2O)c2c1C1CCC2C1 (some centres undefined) | 95.6 | 43.5 | 57.7 | – |
| 42 | – | – | OCCN1CCC[C@@H](Nc2nnc(-c3ccc(C(F)(F)F)cc3O)c3c2C2CCC3CC2)C1 | 99.2 | 98.6 | – | – |
| 27 | – | – | Oc1cc(C(F)(F)F)ccc1-c1nnc(N[C@@H]2CCCN(C3CCC3)C2)c2c1C1CCC2CC1 | 97.1 | 96.8 | – | – |
| 6 | > 2 | < 12 | Oc1c(-c2nnc(N[C@@H]3CCCC[C@H]3O)c3c2C2CCC3CC2)ccc2occc12 | 96.3 | 94.9 | 60 | – |
| 124 | – | – | Oc1cc(C(F)(F)F)ccc1-c1nnc(N[C@@H]2CCCC[C@H]2O)c2c1C1CCC2CC1 | 85.8 | 35.9 | -1.93 | – |
| 53 | – | – | Cc1ccc(-c2nnc(N[C@@H]3CCCN(C4CC(F)(F)C4)C3)c3c2C2CCC3CC2)c(O)c1 | 96.6 | 60.2 | 63.8 | – |
| 4 | 1.16 | 20 | Oc1c(-c2nnc(N[C@@H]3CCC[C@H](O)C3)c3c2C2CCC3CC2)ccc2occc12 | 98.2 | 97.2 | 59 | – |
| 103 | – | – | Oc1cc(C(F)(F)F)ccc1-c1nnc(N[C@@H]2CCCNC2)c2c1C1CCC2CC1 | 94.3 | 46.5 | – | – |
| 38 | – | – | CN1CCC[C@@H](Nc2nnc(-c3ccc(C(F)(F)F)cc3O)c3c2C2CCC3C2)C1 (some centres undefined) | 96.9 | 95 | – | – |
| 26 | – | – | Oc1cc(Cl)ccc1-c1nnc(N[C@@H]2CCCN(C3CC(F)(F)C3)C2)c2c1C1CCC2CC1 | 95.3 | 88 | 23.9 | – |
| – | – | – | N#CCN1CCC[C@@H](Nc2nnc(-c3ccc(C(F)(F)F)cc3O)c3c2C2CCC3C2)C1 (some centres undefined) | 77 | 7.6 | – | – |
| 9 | – | – | Oc1cc(C(F)(F)F)ccc1-c1nnc(N[C@@H]2CCCC[C@H]2O)c2ccccc12 | 97.8 | 98.3 | 86 | – |

| Structure (SMILES) | IC50 [3] [nM] | half-life at 10 µM [5] [h] | intrinsic clearance [6] [mL/min] | inhibition at 0.5 µM [1] [%] | inhibition at 0.1 µM [2] [%] | inhibition at 20 µM [4] [%] | Activity [7] [%] |
| --- | --- | --- | --- | --- | --- | --- | --- |
| CC(C)(O)c1coc(S(=O)(=O)NC(=O)Nc2c3c(cc4c2CCC4)CCC3)c1 | 8 | – | – | 99.3 | 99.2 | – | 60 |
